Values quoted from earlier work in patent publication US20220323356A1, “METAL (HYDR)OXIDE COMPOSITE COMPRISING POORLY SOLUBLE DRUG, METHOD FOR PREPARING SAME, AND PHARMACEUTICAL COMPOSITION COMPRISING SAME” (priority 2020, published 2022).
*1 amine or outer side, *2 acyl side, *3 side chain or, on linkers, in order; H or OH if unused. Where a SMILES comes first, the peptide text is derived from it. Bridges are numbered along the chain shown (N, C = ends). [ ]: non-standard residue; d: D form. The star is where a group is joined. pTerphenylCO(4''-OnC5H11) = CCCCCOc1ccc(-c2ccc(-c3ccc(C(=O)*)cc3)cc2)cc1; Orn(4R-OH,5R-OH) = O=C([C@H](C[C@@H](O)[C@@H](O)N[*:3])N[*:1])[*:2]; hTyr(3S-OH,4S-OH) = N[C@H](C(=O)O)[C@H](O)[C@@H](O)c1ccc(O)cc1; Pro(3S-OH,4S-Me) = C[C@H]1CN[C@H](C(=O)O)[C@H]1O; Hyp = O=C(O)[C@@H]1C[C@@H](O)CN1

Details: in vivo; cited from earlier work

**Q.** For `C[C@]12CC[C@H](O)CC1=CC[C@@H]1[C@@H]2CC[C@]2(C)C(c3cccnc3)=CC[C@@H]12` [Abiraterone], which “bioavailability (%)” value is on record?
**A.** Its value is less than 10%.

**Q.** For `O=C1O[C@H]([C@@H](O)CO)C(O)=C1O` [Ascorbic acid], which “bioavailability (%)” value is on record?
**A.** Its value is 69%.

**Q.** Which “bioavailability (%)” value does the source give for `CNC(=O)c1ccccc1Sc1ccc2c(/C=C/c3ccccn3)n[nH]c2c1` [Axitinib] here?
**A.** Its value is 58%.

**Q.** Which “bioavailability (%)” value does the source give for `COc1cc(Nc2c(C#N)cnc3cc(OCCCN4CCN(C)CC4)c(OC)cc23)c(Cl)cc1Cl` [Bosutinib] here?
**A.** The value was 34%.

**Q.** For `COc1cc2nccc(Oc3ccc(NC(=O)C4(C(=O)Nc5ccc(F)cc5)CC4)cc3)c2cc1OC` [Cabozantinib], which “bioavailability (%)” value is on record?
**A.** Its value is 74-93%.

**Q.** With `O=c1[nH]cc(F)c(=O)[nH]1` [Fluorouracil] as the compound, how does the “bioavailability (%)” value read?
**A.** Its value is 28%.

**Q.** With `CC(=O)[C@]1(O)Cc2c(O)c3c(c(O)c2[C@@H](O[C@H]2C[C@H](N)[C@H](O)[C@H](C)O2)C1)C(=O)c1ccccc1C3=O` [Idarubicin] as the compound, how does the “bioavailability (%)” value read?
**A.** Its value is 20-25%.

**Q.** For `CC(=O)O[C@H]1C(=O)[C@@]2(C)[C@H]([C@H](OC(=O)c3ccccc3)[C@]3(O)C[C@H](OC(=O)[C@H](O)[C@@H](NC(=O)c4ccccc4)c4ccccc4)C(C)=C1C3(C)C)[C@]1(OC(C)=O)CO[C@@H]1C[C@@H]2O` [Paclitaxel], which “bioavailability (%)” value is on record?
**A.** Its value is 30%.

**Q.** For `CCN(CC)CCOc1ccc2c(c1)C(=O)c1cc(OCCN(CC)CC)ccc1-2` [Tilorone], which “bioavailability (%)” value is on record?
**A.** The value was 60%.

**Q.** Which “bioavailability (%)” value does the source give for `CC[C@@]1(O)C(=O)OCc2c1cc1n(c2=O)Cc2cc3c(CN(C)C)c(O)ccc3nc2-1` [Topotecan] here?
**A.** Its value is 30-44%.

**Q.** Which “bioavailability (%)” value does the source give for `CCN1CCN(Cc2ccc(Nc3ncc(F)c(-c4cc(F)c5nc(C)n(C(C)C)c5c4)n3)nc2)CC1` [abemaciclib(USAN), abemaciclib] here?
**A.** The value was 45%.

**Q.** Which “bioavailability (%)” value does the source give for `CC(=O)N[C@@H](CS)C(=O)O` [acetylcysteine] here?
**A.** The value was 10%.

**Q.** Which “bioavailability (%)” value does the source give for `Oc1ncnc2[nH]ncc12` [allopurinol] here?
**A.** The value was 67%.

**Q.** With `CCN(CC)Cc1cc(Nc2ccnc3cc(Cl)ccc23)ccc1O` [amodiaquine] as the compound, how does the “bioavailability (%)” value read?
**A.** The value was 22%.

**Q.** With `CCCCCOc1ccc(-c2ccc(-c3ccc(C(=O)N[C@H]4C[C@@H](O)[C@@H](O)NC(=O)[C@@H]5[C@@H](O)[C@@H](C)CN5C(=O)[C@H]([C@@H](C)O)NC(=O)[C@H]([C@H](O)[C@@H](O)c5ccc(O)cc5)NC(=O)[C@@H]5C[C@@H](O)CN5C(=O)[C@H]([C@@H](C)O)NC4=O)cc3)cc2)cc1` [anidulafungin(LY303366), anidulafungin] ({pTerphenylCO(4''-OnC5H11)}-[Orn(4R-OH,5R-OH)]T[Hyp][hTyr(3S-OH,4S-OH)]T[Pro(3S-OH,4S-Me)]; lactam 1-C) as the compound, how does the “bioavailability (%)” value read?
**A.** The value was 2~7%.

**Q.** Which “bioavailability (%)” value does the source give for `COC(=O)N[C@H](C(=O)N[C@@H](Cc1ccccc1)[C@@H](O)CN(Cc1ccc(-c2ccccn2)cc1)NC(=O)[C@@H](NC(=O)OC)C(C)(C)C)C(C)(C)C` [atazanavir] here?
**A.** The value was 60%.

**Q.** With `Cc1c(-c2ccc(O)cc2)n(Cc2ccc(OCCN3CCCCCC3)cc2)c2ccc(O)cc12` [bazedoxifene] as the compound, how does the “bioavailability (%)” value read?
**A.** Its value is 6%.

**Q.** With `COc1cc2c3cc1Oc1c(OC)c(OC)cc4c1[C@@H](Cc1ccc(O)c(c1)Oc1ccc(cc1)C[C@@H]3N(C)CC2)N(C)CC4` [berbamine] as the compound, how does the “bioavailability (%)” value read?
**A.** The value was 30%.

**Q.** With `N.N.O=C([O-])C1(C(=O)[O-])CCC1.[Pt+2]` [carboplatin] as the compound, how does the “bioavailability (%)” value read?
**A.** The value was 1.16%.

**Q.** For `COc1ccc2cc1Oc1ccc(cc1)C[C@H]1c3c(cc4c(c3Oc3cc5c(cc3OC)CCN(C)[C@@H]5C2)OCO4)CCN1C` [cepharanthine], which “bioavailability (%)” value is on record?
**A.** Its value is 5%.

**Q.** With `Cc1cc(Nc2ncc(Cl)c(Nc3ccccc3S(=O)(=O)C(C)C)n2)c(OC(C)C)cc1C1CCNCC1` [ceritinib(LDK378), ceritinib] as the compound, how does the “bioavailability (%)” value read?
**A.** The value was 50%.

**Q.** Which “bioavailability (%)” value does the source give for `CCN(CC)CCCC(C)Nc1ccnc2cc(Cl)ccc12` (centres unmarked) [chloroquine] here?
**A.** Its value is 50~100%.

**Q.** For `CC(C)C(=O)OCC(=O)[C@@]12O[C@H](C3CCCCC3)O[C@@H]1C[C@H]1[C@@H]3CCC4=CC(=O)C=C[C@]4(C)[C@H]3[C@@H](O)C[C@@]12C` [ciclesonide], which “bioavailability (%)” value is on record?
**A.** The value was less than 1%.

**Q.** With `CCN(CC)CCOc1ccc(C(=C(Cl)c2ccccc2)c2ccccc2)cc1` [clomiphene] as the compound, how does the “bioavailability (%)” value read?
**A.** The value was 90%.

**Q.** Which “bioavailability (%)” value does the source give for `CC(C)(C)c1nc(-c2cccc(NS(=O)(=O)c3c(F)cccc3F)c2F)c(-c2ccnc(N)n2)s1` [dabrafenib] here?
**A.** Its value is 95%.

**Q.** With `C[C@H]1O[C@@H](O[C@H]2[C@@H](O)C[C@H](O[C@H]3[C@@H](O)C[C@H](O[C@H]4CC[C@@]5(C)[C@H](CC[C@@H]6[C@@H]5CC[C@]5(C)[C@@H](C7=CC(=O)OC7)CC[C@]65O)C4)O[C@@H]3C)O[C@@H]2C)C[C@H](O)[C@@H]1O` [digitoxin] as the compound, how does the “bioavailability (%)” value read?
**A.** The value was 98%.

**Q.** For `C[C@H]1O[C@@H](O[C@H]2[C@@H](O)C[C@H](O[C@H]3[C@@H](O)C[C@H](O[C@H]4CC[C@@]5(C)[C@H](CC[C@@H]6[C@@H]5C[C@@H](O)[C@]5(C)[C@@H](C7=CC(=O)OC7)CC[C@]65O)C4)O[C@@H]3C)O[C@@H]2C)C[C@H](O)[C@@H]1O` [digoxin], which “bioavailability (%)” value is on record?
**A.** Its value is 50~90%.

**Q.** For `COc1cccc2c1C(=O)c1c(O)c3c(c(O)c1C2=O)C[C@@](O)(C(=O)CO)C[C@@H]3O[C@H]1C[C@H](N)[C@H](O)[C@H](C)O1` [doxorubicin], which “bioavailability (%)” value is on record?
**A.** Its value is 5%.

**Q.** Which “bioavailability (%)” value does the source give for `CC/C(=C(/c1ccc(OCCN(C)C)cc1)c1cccc(O)c1)c1ccccc1` [droloxifene] here?
**A.** The value was 2%.

**Q.** With `CCCCc1oc2ccc(NS(C)(=O)=O)cc2c1C(=O)c1ccc(OCCCN(CCCC)CCCC)cc1` [dronedarone] as the compound, how does the “bioavailability (%)” value read?
**A.** The value was 15%.

**Q.** With `CC1=NN(c2ccc(C)c(C)c2)C(=O)/C1=N\Nc1cccc(-c2cccc(C(=O)O)c2)c1O` [eltrombopag] as the compound, how does the “bioavailability (%)” value read?
**A.** Its value is 52%.

**Q.** Which “bioavailability (%)” value does the source give for `C#Cc1cccc(Nc2ncnc3cc(OCCOC)c(OCCOC)cc23)c1` [erlotinib] here?
**A.** The value was 59%.

**Q.** With `CO[C@H]1C[C@@H]2CC[C@@H](C)[C@@](O)(O2)C(=O)C(=O)N2CCCC[C@H]2C(=O)O[C@H]([C@H](C)C[C@@H]2CC[C@@H](OCCO)[C@H](OC)C2)CC(=O)[C@H](C)/C=C(\C)[C@@H](O)[C@@H](OC)C(=O)[C@H](C)C[C@H](C)/C=C/C=C/C=C/1C` [everolimus] as the compound, how does the “bioavailability (%)” value read?
**A.** The value was 5%.

**Q.** Which “bioavailability (%)” value does the source give for `NC(=O)c1nc(F)c[nH]c1=O` [favipiravir] here?
**A.** Its value is 98%.

**Q.** With `CCc1nc(C(N)=O)c(Nc2ccc(N3CCC(N4CCN(C)CC4)CC3)c(OC)c2)nc1NC1CCOCC1` [gilteritinib] as the compound, how does the “bioavailability (%)” value read?
**A.** The value was 60%.

**Q.** Which “bioavailability (%)” value does the source give for `Oc1c(Cl)cc(Cl)c(Cl)c1Cc1c(O)c(Cl)cc(Cl)c1Cl` [hexachlorophene] here?
**A.** Its value is 4~10%.

**Q.** For `CCN(CCO)CCCC(C)Nc1ccnc2cc(Cl)ccc12` (centres unmarked) [hydroxychloroquine], which “bioavailability (%)” value is on record?
**A.** The value was 70%.

**Q.** With `CC(=O)[C@@]1(O)CC[C@H]2[C@@H]3CCC4=CC(=O)CC[C@]4(C)[C@H]3CC[C@@]21C` [hydroxyprogesterone] as the compound, how does the “bioavailability (%)” value read?
**A.** Its value is 3%.

**Q.** With `COC1=C(OC)C(=O)C(CCCCCCCCCCO)=C(C)C1=O` [idebenone] as the compound, how does the “bioavailability (%)” value read?
**A.** The value was less than 1%.

**Q.** Which “bioavailability (%)” value does the source give for `CC(C)(C)c1cc(C(C)(C)C)c(NC(=O)c2c[nH]c3ccccc3c2=O)cc1O` [ivacaftor] here?
**A.** The value was 20~30%.

**Q.** For `CS(=O)(=O)CCNCc1ccc(-c2ccc3ncnc(Nc4ccc(OCc5cccc(F)c5)c(Cl)c4)c3c2)o1` [lapatinib], which “bioavailability (%)” value is on record?
**A.** Its value is 60%.

**Q.** Which “bioavailability (%)” value does the source give for `N#Cc1cc(NC(=O)C(=O)O)c(Cl)c(NC(=O)C(=O)O)c1` [lodoxamide] here?
**A.** The value was 71%.

**Q.** With `CN(C)C(=O)C(CCN1CCC(O)(c2ccc(Cl)cc2)CC1)(c1ccccc1)c1ccccc1` [loperamide] as the compound, how does the “bioavailability (%)” value read?
**A.** Its value is 0.3%.

**Q.** For `Cc1cccc(C)c1OCC(=O)N[C@@H](Cc1ccccc1)[C@@H](O)C[C@H](Cc1ccccc1)NC(=O)[C@H](C(C)C)N1CCCNC1=O` [lopinavir], which “bioavailability (%)” value is on record?
**A.** The value was 25%.
